Measurements taken from patent US20240060986A1, “METHOD FOR SELECTING PEPTIDE […] ON PROTEIN CYTOTOXICITY” (priority 2022, published 2024).
No end group written: not given here.

Target: T1, main protease (M^pro) of SARS-CoV2 virus (Severe acute respiratory syndrome coronavirus 2, UniProt P0DTD1)
T1 construct: 30 μl of 3CL Protease enzyme solution (0.05 ng/ul) was mixed with 10 μl of peptides; purchased BPS Bioscience 78042-1
Test: biochemical

Row | Sequence | IC50 [µM]
1 | RQDLDYQRRRGAGISSTLVQSRK [Peptide M3] | 750
2 | PVHPQMQTETGTAHC [Peptide M14] | 1200
